Each block holds one molecule with its values, some of them ahead of it.
Legend:
Format in all cases: physicochemical
[1] = Accelerated stability of C21/mannitol powder mixtures, 60° C. for 12 days
Description: C21 sodium salt was used together with 7 different types of mannitol from two different manufacturers.
C21 and mannitol were added to glass flasks and were mixed together using a Turbula mixer. At a mixing time of 30 minutes, each flask was sampled for homogeneity and related impurities were analysed.
An aliquot of each powder mixture was also subjected to 60° C. for 12 days in a stability analysis. The nominal content of C21 was 7.4% w/w (calculated as free C21) for all mannitol mixtures except one, where an additional strength of 14.8% w/w was also tested.

[2] = Excipient compatibility study, 60° C. for 12 days (related impurities)
Description: The excipients used in the capsules in Comparative Example 3 above were evaluated along with some additional ones (see Table 8 below).
C21 (sodium salt) used in these experiments was ground and passed through a 300 μm sieve. Mixtures of each excipient and C21 were prepared by thorough mixing in the amounts specified in Table 8. The ratio of C21 to various fillers (D-mannitol, MCC, lactose monohydrate and HPMC) was adapted to give a volume equivalent to the larger part of a capsule.
Three capsules of each type were filled with C21. All preparations were stored under accelerated stability conditions at 60° C. for 12 days prior to analysis.
In addition to the disintegrants (sodium starch glycolate and croscarmellose sodium) mentioned above, crospovidone of two different types (Kollidon® CL (Type A), and Kollidon® CL-SF (Type B) (both BASF) were tested.
Mixtures of 130 mg crospovidone and 200 mg C21 were prepared and were thoroughly mixed using a Turbula mixer for 10 minutes. All of these preparations were analysed at time zero and after storage at accelerated stability conditions at 60° C. for 12 days.

[3] = Stability of aqueous solutions of C21 (free C21 1 mg/mL in 0.9% NaCl pH 9.4; sodium salt likewise) under four storage conditions, HPLC; conditions: for light-induced degradation: aqueous solution, RT/light; for chemical stability: solution stored in dark at 5° C., RT and 40° C. for four weeks
Description: The stability of free C21 in 0.9% NaCl pH 9.4 was investigated.
Solutions of 1 mg/mL of C21 were studied for four weeks under four different storage conditions. The solution was filtered through a 0.22 sterile syringe filter to minimize bacterial growth during the stability test. The samples were analysed by HPLC for purity.
The results are summarised in Table 3 below, in which the amount of C21 is given as a percentage of the initial amount of drug. Solution pHs were also measured and are shown within parenthesis in Table 3.
The stability of the sodium salt of C21 was also investigated under the same storage conditions.
At the time for analysis of the one week samples, it was noted that the heating cabinet for storage of samples at 40° C. was broken. In view of this, these samples were thereafter kept at room temperature for three days.

[4] = Solubility of C21 sodium salt in aqueous vehicles
Description: In this experiment, C21 sodium salt (Syntagon AB) was added to the vehicle, small amounts at a time. About 20-30 mg of the sodium salt was easily dissolved in all the vehicles tested. Salt was continuously added to the same sample in an attempt to obtain a saturated solution. In this way, higher amounts, such as 40-60 mg/mL could be dissolved. The solubility is probably even higher than this in the vehicles tested, but this was not established in view of the limited amount of drug compound available.

Impurities ≥0.05% Formed: 1 [1]: 0.26 area % | Degradation: Sum of impurities (≥0.05%) [2]: 0.26% | Individual Impurity 1 [2]: 0.26 area % | degradation of C21 [2]: No degradation | Amount of Free C21, % of initial ([3]; 5° C., dark, 1 week): 108 % of initial | Solution pH (within parenthesis) ([3]; 5° C., dark, 1 week): 8.5 | Amount of Free C21, % of initial ([3]; 5° C., dark, 2 weeks): 113 % of initial | Solution pH (within parenthesis) ([3]; 5° C., dark, 2 weeks): 8.4 | Amount of Free C21, % of initial ([3]; 5° C., dark, 3 weeks): 113 % of initial | Solution pH (within parenthesis) ([3]; 5° C., dark, 3 weeks): 8.5 | Amount of Free C21, % of initial ([3]; 5° C., dark, 4 weeks): 112 % of initial | Solution pH (within parenthesis) ([3]; 5° C., dark, 4 weeks): 8.5 | Amount of Free C21, % of initial ([3]; 5° C., dark, Initial): 100 % of initial | Solution pH (within parenthesis) ([3]; 5° C., dark, Initial): 8.3 | Amount of Free C21, % of initial ([3]; 40° C., dark, 1 week): 111 % of initial | Solution pH (within parenthesis) ([3]; 40° C., dark, 1 week): 8.6 | Amount of Free C21, % of initial ([3]; 40° C., dark, 2 weeks): 111 % of initial | Solution pH (within parenthesis) ([3]; 40° C., dark, 2 weeks): 8.5 | Amount of Free C21, % of initial ([3]; 40° C., dark, 3 weeks): 109 % of initial | Solution pH (within parenthesis) ([3]; 40° C., dark, 3 weeks): 8.7 | Amount of Free C21, % of initial ([3]; 40° C., dark, 4 weeks): 118 % of initial | Solution pH (within parenthesis) ([3]; 40° C., dark, 4 weeks): 8.1 | Amount of Free C21, % of initial ([3]; 40° C., dark, Initial): 100 % of initial | Solution pH (within parenthesis) ([3]; 40° C., dark, Initial): 8.3 | Amount of Free C21, % of initial ([3]; RT, dark, 1 week): 115 % of initial | Solution pH (within parenthesis) ([3]; RT, dark, 1 week): 8.6 | Amount of Free C21, % of initial ([3]; RT, dark, 2 weeks): 110 % of initial | Solution pH (within parenthesis) ([3]; RT, dark, 2 weeks): 8.8 | Amount of Free C21, % of initial ([3]; RT, dark, 3 weeks): 111 % of initial | Solution pH (within parenthesis) ([3]; RT, dark, 3 weeks): 8.8 | Amount of Free C21, % of initial ([3]; RT, dark, 4 weeks): 112 % of initial | Solution pH (within parenthesis) ([3]; RT, dark, 4 weeks): 8.2 | Amount of Free C21, % of initial ([3]; RT, dark, Initial): 100 % of initial | Solution pH (within parenthesis) ([3]; RT, dark, Initial): 8.3 | Amount of Free C21, % of initial ([3]; RT, light, 1 week): 108 % of initial | Solution pH (within parenthesis) ([3]; RT, light, 1 week): (8.4) | Amount of Free C21, % of initial ([3]; RT, light, 2 weeks): 96 % of initial | Solution pH (within parenthesis) ([3]; RT, light, 2 weeks): (8.0) | Amount of Free C21, % of initial ([3]; RT, light, 3 weeks): 72 % of initial | Solution pH (within parenthesis) ([3]; RT, light, 3 weeks): (8.3) | Amount of Free C21, % of initial ([3]; RT, light, 4 weeks): 9 % of initial | Solution pH (within parenthesis) ([3]; RT, light, 4 weeks): (7.3) | Amount of Free C21, % of initial ([3]; RT, light, Initial): 100 % of initial | Solution pH (within parenthesis) ([3]; RT, light, Initial): (8.3) | light-induced degradation [3]: light-induced degradation occurs | chemical stability [3]: chemically stable | amount that could be dissolved ([4]; salt continuously added, vehicles tested, saturation not established): 40 to 60 mg/mL | solubility compared with free C21 ([4]; similar experiment): considerably higher than free C21 | Concentration (solubility) ([4]; vehicle 0.9% NaCl, pH 9.3): >40 mg/mL | Concentration (solubility) ([4]; vehicle H2O, pH 9.8): >65 mg/mL | Concentration (solubility) ([4]; vehicle PBS pH 7.4, measured pH 9.4): >40 mg/mL
SMILES: CCCCOC(=O)[N-]S(=O)(=O)c1sc(CC(C)C)cc1-c1ccc(Cn2ccnc2)cc1.[Na+] [C21 sodium salt]

Amount of Free C21, % of initial ([3]; 5° C., dark, 1 week): 101 % of initial | Solution pH (within parenthesis) ([3]; 5° C., dark, 1 week): 9.2 | Amount of Free C21, % of initial ([3]; 5° C., dark, 2 weeks): 107 % of initial | Solution pH (within parenthesis) ([3]; 5° C., dark, 2 weeks): 9.2 | Amount of Free C21, % of initial ([3]; 5° C., dark, 3 weeks): 108 % of initial | Solution pH (within parenthesis) ([3]; 5° C., dark, 3 weeks): 9.1 | Amount of Free C21, % of initial ([3]; 5° C., dark, 4 weeks): 108 % of initial | Solution pH (within parenthesis) ([3]; 5° C., dark, 4 weeks): 9.2 | Amount of Free C21, % of initial ([3]; 5° C., dark, Initial): 100 % of initial | Solution pH (within parenthesis) ([3]; 5° C., dark, Initial): 9.4 | Amount of Free C21, % of initial ([3]; 40° C., dark, 1 week): 101 % of initial | Solution pH (within parenthesis) ([3]; 40° C., dark, 1 week): 9.0 | Amount of Free C21, % of initial ([3]; 40° C., dark, 2 weeks): 111 % of initial | Solution pH (within parenthesis) ([3]; 40° C., dark, 2 weeks): 8.6 | Amount of Free C21, % of initial ([3]; 40° C., dark, 3 weeks): 106 % of initial | Solution pH (within parenthesis) ([3]; 40° C., dark, 3 weeks): 8.7 | Amount of Free C21, % of initial ([3]; 40° C., dark, 4 weeks): 107 % of initial | Solution pH (within parenthesis) ([3]; 40° C., dark, 4 weeks): 8.7 | Amount of Free C21, % of initial ([3]; 40° C., dark, Initial): 100 % of initial | Solution pH (within parenthesis) ([3]; 40° C., dark, Initial): 9.4 | Amount of Free C21, % of initial ([3]; RT, dark, 1 week): 97 % of initial | Solution pH (within parenthesis) ([3]; RT, dark, 1 week): (9.2) | Amount of Free C21, % of initial ([3]; RT, dark, 2 weeks): 109 % of initial | Solution pH (within parenthesis) ([3]; RT, dark, 2 weeks): (8.9) | Amount of Free C21, % of initial ([3]; RT, dark, 3 weeks): 105 % of initial | Solution pH (within parenthesis) ([3]; RT, dark, 3 weeks): (9.0) | Amount of Free C21, % of initial ([3]; RT, dark, 4 weeks): 106 % of initial | Solution pH (within parenthesis) ([3]; RT, dark, 4 weeks): (8.9) | Amount of Free C21, % of initial ([3]; RT, dark, Initial): 100 % of initial | Solution pH (within parenthesis) ([3]; RT, dark, Initial): (9.4) | Amount of Free C21, % of initial ([3]; RT, light, 1 week): 96 % of initial | Solution pH (within parenthesis) ([3]; RT, light, 1 week): (9.0) | Amount of Free C21, % of initial ([3]; RT, light, 2 weeks): 44 % of initial | Solution pH (within parenthesis) ([3]; RT, light, 2 weeks): (8.0) | Amount of Free C21, % of initial ([3]; RT, light, 3 weeks): 96 % of initial | Solution pH (within parenthesis) ([3]; RT, light, 3 weeks): (8.5) | Amount of Free C21, % of initial ([3]; RT, light, 4 weeks): 13 % of initial | Solution pH (within parenthesis) ([3]; RT, light, 4 weeks): (7.7) | Amount of Free C21, % of initial ([3]; RT, light, Initial): 100 % of initial | Solution pH (within parenthesis) ([3]; RT, light, Initial): (9.4) | light-induced degradation [3]: light-induced degradation occurs | total impurity peak area ([3]; free C21 solution, samples stored at 5° C., RT/dark and 40° C.): around 2.5 area % of C21 peak area | chemical stability [3]: chemically stable
SMILES: CCCCOC(=O)NS(=O)(=O)c1sc(CC(C)C)cc1-c1ccc(Cn2ccnc2)cc1 [free C21, N-butyloxycarbonyl-3-(4-imidazol-1-ylmethylphenyl)-5-iso-butylthiophene-2-sulfonamide]
